Among the test systems are HCT-116 colon; MCF7 breast; A498 renal; HOP-62 NSCLC; NCI/ADR-RES ovarian; UACC-257 melanoma; HT29 colon; SNB-19 CNS; SK-MEL-2 melanoma; SF-268 CNS.
Holding throughout (test): NCI-60 cell line screen, 48 h

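Method: 48-hour compound exposure of cells in 96-well plates, five concentrations, linear interpolation of endpoints. At the GI50, growth is halved. TGI: concentration producing complete growth inhibition.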

Turning to `CCOC(=O)c1c2c(n(Cc3ccccc3)c1C)-c1ccccc1C(=O)C2=O`, the GI50 with HCT-116 colon is 11.6 µM; in the test with MCF7 breast, 5.23 µM; in the test on A498 renal, 24.6 µM; in the test on HOP-62 NSCLC it was 13.7 µM; in the test on NCI/ADR-RES ovarian, 9.42 µM; in the test on UACC-257 melanoma it was 28.4 µM. For the same compound, the GI50 in the test with HT29 colon is 11.8 µM; with SNB-19 CNS, 15.4 µM; in the test on SK-MEL-2 melanoma, 18.4 µM; with SF-268 CNS it was 19.5 µM. In addition, the TGI in the test on HCT-116 colon is 25.2 µM; in the test on MCF7 breast it was 20.9 µM; in the test with A498 renal, 60 µM; in the test with HOP-62 NSCLC, 27.1 µM; in the test on NCI/ADR-RES ovarian it was 27.4 µM; in the test with UACC-257 melanoma, 69.2 µM. Besides, the TGI in the test with HT29 colon amounted to 25.7 µM; in the test on SNB-19 CNS, 29.4 µM; with SK-MEL-2 melanoma, 40.8 µM; in the test with SF-268 CNS, 47.2 µM.
As for `CC(=O)c1cc2c(cc1Nc1c3ccccc3nc3occ(Cl)c13)OCO2`, the GI50 is 0.246 µM in the test on HCT-116 colon; 0.0939 µM in the test with MCF7 breast; 0.105 µM in the test with A498 renal; 0.291 µM in the test on HOP-62 NSCLC; 0.236 µM in the test with NCI/ADR-RES ovarian; above 100 µM with UACC-257 melanoma. Also, the GI50 in the test with HT29 colon was 0.439 µM; in the test with SNB-19 CNS it was 0.601 µM; in the test on SF-268 CNS it was 0.697 µM. The TGI is 1.07 µM in the test with HCT-116 colon; above 100 µM in the test on MCF7 breast; 0.373 µM in the test with A498 renal; above 65.1 µM in the test on HOP-62 NSCLC; 1.47 µM in the test on NCI/ADR-RES ovarian; above 100 µM in the test with UACC-257 melanoma. In addition, the TGI with HT29 colon, in the test on SNB-19 CNS, with SK-MEL-2 melanoma and in the test on SF-268 CNS was above 100 µM throughout.
Turning to `O=c1c2ccccc2n2n1CC(O)C2` (configuration not stated), the TGI in the test with HCT-116 colon, with MCF7 breast, with A498 renal, with HOP-62 NSCLC, in the test on NCI/ADR-RES ovarian and in the test with UACC-257 melanoma was above 100 µM throughout. Further, the TGI in the test with HT29 colon, in the test on SNB-19 CNS, in the test with SK-MEL-2 melanoma and with SF-268 CNS was above 100 µM in each case. For the same compound, the GI50 in the test with MCF7 breast, with A498 renal and with NCI/ADR-RES ovarian was above 100 µM each time.
In the case of `O=C1c2ccccc2C(=Cc2ccccc2)c2ccccc21`, the GI50 in the test on HCT-116 colon is 1.89 µM; with MCF7 breast, 1.44 µM; in the test with A498 renal, 2.3 µM; in the test on HOP-62 NSCLC, 2.62 µM; in the test on NCI/ADR-RES ovarian, 1.6 µM; with UACC-257 melanoma, 5.22 µM. The GI50 was 1.17 µM in the test with HT29 colon, 3.61 µM in the test on SNB-19 CNS, 1.78 µM in the test on SK-MEL-2 melanoma and 3.34 µM in the test with SF-268 CNS. Moreover, the TGI with HCT-116 colon came out at 5.13 µM; with MCF7 breast, 12 µM; with A498 renal, 9.52 µM; with HOP-62 NSCLC it was 10.2 µM; with NCI/ADR-RES ovarian, 6.62 µM; in the test on UACC-257 melanoma, 23.9 µM. Also, the TGI with HT29 colon worked out at 4.33 µM; in the test on SNB-19 CNS, 16.9 µM; in the test with SK-MEL-2 melanoma, 4.95 µM; with SF-268 CNS, 16.6 µM.
For `CN=C(NC#N)NCCSCc1nc[nH]c1C`, the TGI in the test on HCT-116 colon, in the test on MCF7 breast, in the test with A498 renal, in the test with HOP-62 NSCLC, in the test with NCI/ADR-RES ovarian and in the test with UACC-257 melanoma was above 100 µM in each case. Besides, the TGI in the test with HT29 colon, in the test on SNB-19 CNS, in the test with SK-MEL-2 melanoma and in the test on SF-268 CNS was above 100 µM each time.
As for `COC(=O)[C@]12CC[C@@H](C)[C@H](C)[C@@H]1C1=CC[C@@H]3[C@@]4(C)C(C=O)=C[C@@](C)(COC(=O)c5ccco5)[C@@H]4C(=O)C[C@@]3(C)[C@]1(C)CC2`, the GI50 in the test with HCT-116 colon is 3.68 µM; in the test with MCF7 breast, 4.07 µM; in the test on A498 renal, 12.1 µM; in the test with HOP-62 NSCLC, 18.9 µM; with NCI/ADR-RES ovarian it was 4.82 µM; with UACC-257 melanoma it was 0.148 µM. Also, the GI50 was 7.92 µM with HT29 colon, 6.15 µM with SNB-19 CNS, 0.5 µM in the test with SK-MEL-2 melanoma and 7.03 µM in the test with SF-268 CNS. The TGI in the test with HCT-116 colon was above 100 µM; in the test with MCF7 breast it was 44.2 µM; with A498 renal it was 94.7 µM; in the test with HOP-62 NSCLC, above 100 µM; in the test with NCI/ADR-RES ovarian, above 100 µM; in the test on UACC-257 melanoma it was 0.666 µM. For the same compound, the TGI in the test on HT29 colon is above 100 µM; in the test on SNB-19 CNS it was above 100 µM; with SK-MEL-2 melanoma, 2.78 µM; in the test with SF-268 CNS it was above 100 µM.
Regarding `CCOC(=O)/C=C/c1cc2cc(-c3csc4ccccc34)ccc2[nH]1`, the GI50 was 2.96 µM in the test on HCT-116 colon; 3.34 µM in the test on MCF7 breast; 12 µM in the test with A498 renal; 5.71 µM with HOP-62 NSCLC; 10 µM with NCI/ADR-RES ovarian; 12.6 µM with UACC-257 melanoma. Also, the GI50 in the test with HT29 colon is 3.39 µM; in the test with SNB-19 CNS, 16 µM; in the test with SK-MEL-2 melanoma, 4.92 µM; in the test with SF-268 CNS, 11 µM. For the same compound, the TGI with HCT-116 colon was 31.4 µM; in the test with MCF7 breast, 15.3 µM; with A498 renal, 24.6 µM; with HOP-62 NSCLC, 24.4 µM; with NCI/ADR-RES ovarian it was 55.3 µM; in the test on UACC-257 melanoma it was 25.2 µM. The TGI with HT29 colon was found to be 11.6 µM; with SNB-19 CNS it was 33.5 µM; in the test with SK-MEL-2 melanoma it was 17.3 µM; in the test on SF-268 CNS, 26.6 µM.
With `O=C(Nc1ccc(CN2CCOCC2)cc1)c1[nH]ncc1Nc1ncnc2sccc12`, the GI50 is 0.217 µM in the test with HCT-116 colon; 0.265 µM in the test with MCF7 breast; 0.0363 µM in the test with A498 renal; 0.669 µM with HOP-62 NSCLC; 0.578 µM in the test with NCI/ADR-RES ovarian; 1.96 µM in the test with UACC-257 melanoma. Besides, the GI50 is 0.686 µM in the test with HT29 colon, 0.703 µM in the test on SNB-19 CNS, 0.36 µM in the test on SK-MEL-2 melanoma and 0.595 µM in the test on SF-268 CNS. The TGI is 12.3 µM with HCT-116 colon; above 100 µM in the test on MCF7 breast; 0.461 µM in the test with A498 renal; 41.6 µM with HOP-62 NSCLC; above 100 µM with NCI/ADR-RES ovarian; 25.2 µM in the test on UACC-257 melanoma. Further, the TGI with HT29 colon is above 100 µM; with SNB-19 CNS it was above 100 µM; in the test with SK-MEL-2 melanoma it was 2.14 µM; with SF-268 CNS, 5.6 µM.
